Among the data in PubChem BioAssay AID1745859 are IC50 values, retold here.

This experiment concerns the target Equilibrative nucleoside transporter 1 (Homo sapiens) (UniProt Q99808). The experiment can be described thus: PubChem AID 1745859. As to conditions: U2OS JumpIn-ENT1 cells, TRACT impedance, adenosine response.

A word on the IC50: it is the concentration that inhibits the measured activity by half.

Sequence of Equilibrative nucleoside transporter 1 (Homo sapiens) (Q99808 whole entry, looked up): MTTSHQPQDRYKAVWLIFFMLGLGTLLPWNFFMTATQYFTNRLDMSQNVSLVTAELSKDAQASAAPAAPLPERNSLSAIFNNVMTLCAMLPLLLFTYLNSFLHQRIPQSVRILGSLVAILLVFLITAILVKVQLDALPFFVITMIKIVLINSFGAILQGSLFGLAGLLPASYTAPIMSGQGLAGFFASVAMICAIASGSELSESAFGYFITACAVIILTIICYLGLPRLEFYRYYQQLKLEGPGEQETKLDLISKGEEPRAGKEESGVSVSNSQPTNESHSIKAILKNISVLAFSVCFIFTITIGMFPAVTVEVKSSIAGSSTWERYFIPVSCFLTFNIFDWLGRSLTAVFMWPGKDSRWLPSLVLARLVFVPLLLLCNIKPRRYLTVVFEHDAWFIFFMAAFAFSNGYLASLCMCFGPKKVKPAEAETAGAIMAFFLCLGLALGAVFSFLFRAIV

For the molecule `NC(=O)C1CN(CCCCC(c2ccc(F)cc2)c2ccc(F)cc2)CCN1CC(=O)Nc1c(Cl)cc(N)cc1Cl` (stereo unspecified), the IC50 was 5.31 nM.
